Broadly, the Ki is a dissociation constant, usually derived from enzyme kinetics or from competition with a known ligand. A high value points to a looser hold on the target.

This passage reports Ki results from patent US20210253568A1, “AZAINDOLE DERIVATIVES AS RHO-KINASE INHIBITORS” (CHIESI FARMACEUTICI S.p.A., priority 2018, published 2021).

In one assay the target is ROCK 2 (Homo sapiens, UniProt O75116). Nature of the assay: In vitro Rho kinase inhibitory activity assay (ADP-Glo), Rho kinase 2. It is filed as biochemical. Particulars: Ki by Cheng-Prusoff from IC50; 10 μM ATP, 25° C., expressed as range of activity. Here is the method: (§1) The effectiveness of compounds of the present invention to inhibit Rho kinase activity can be determined in a 10 μl assay containing 40 mM Tris pH7.5, 20 mM MgCl2 0.1 mg/mi BSA, 50 μM DTT and 2.5 μM peptide substrate (Myelin Basic Protein) using an ADP-Glo kit (Promega). Compounds were dissolved in DMSO such that the final concentration of DMSO was 1% in the assay. All reactions/incubations are performed at 25° C. Compound (2 ul) and either Rho kinase 1 or 2 (4 μl) were mixed and incubated for 30 mins. Reactions were initiated by addition of ATP (4 μl) such that the final concentration of ATP in the assay was 10 μM. After a 1 hour incubation 10 μl of ADP-Glo Reagent was added and after a further 45 minute incubation 20 ul of Kinase Detection Buffer was added and the mixture incubated for a further 30 minutes. The luminescent signal was measured on a luminometer. […] Compounds were tested in dose-response format and the inhibition of kinase activity was calculated at each concentration of compound. To determine the IC50 (concentration of compound required to inhibit 50% of the enzyme activity) data were fit to a plot of % inhibition vs Log10 compound concentration using a sigmoidal fit with a variable slope and fixing the maximum to 100% and the minimum to 0%. To determine the Ki values the Cheng-Prusoff equation was utilized (Ki=IC50/(1+[S]/Km).
Chain of ROCK 2 (O75116 whole entry): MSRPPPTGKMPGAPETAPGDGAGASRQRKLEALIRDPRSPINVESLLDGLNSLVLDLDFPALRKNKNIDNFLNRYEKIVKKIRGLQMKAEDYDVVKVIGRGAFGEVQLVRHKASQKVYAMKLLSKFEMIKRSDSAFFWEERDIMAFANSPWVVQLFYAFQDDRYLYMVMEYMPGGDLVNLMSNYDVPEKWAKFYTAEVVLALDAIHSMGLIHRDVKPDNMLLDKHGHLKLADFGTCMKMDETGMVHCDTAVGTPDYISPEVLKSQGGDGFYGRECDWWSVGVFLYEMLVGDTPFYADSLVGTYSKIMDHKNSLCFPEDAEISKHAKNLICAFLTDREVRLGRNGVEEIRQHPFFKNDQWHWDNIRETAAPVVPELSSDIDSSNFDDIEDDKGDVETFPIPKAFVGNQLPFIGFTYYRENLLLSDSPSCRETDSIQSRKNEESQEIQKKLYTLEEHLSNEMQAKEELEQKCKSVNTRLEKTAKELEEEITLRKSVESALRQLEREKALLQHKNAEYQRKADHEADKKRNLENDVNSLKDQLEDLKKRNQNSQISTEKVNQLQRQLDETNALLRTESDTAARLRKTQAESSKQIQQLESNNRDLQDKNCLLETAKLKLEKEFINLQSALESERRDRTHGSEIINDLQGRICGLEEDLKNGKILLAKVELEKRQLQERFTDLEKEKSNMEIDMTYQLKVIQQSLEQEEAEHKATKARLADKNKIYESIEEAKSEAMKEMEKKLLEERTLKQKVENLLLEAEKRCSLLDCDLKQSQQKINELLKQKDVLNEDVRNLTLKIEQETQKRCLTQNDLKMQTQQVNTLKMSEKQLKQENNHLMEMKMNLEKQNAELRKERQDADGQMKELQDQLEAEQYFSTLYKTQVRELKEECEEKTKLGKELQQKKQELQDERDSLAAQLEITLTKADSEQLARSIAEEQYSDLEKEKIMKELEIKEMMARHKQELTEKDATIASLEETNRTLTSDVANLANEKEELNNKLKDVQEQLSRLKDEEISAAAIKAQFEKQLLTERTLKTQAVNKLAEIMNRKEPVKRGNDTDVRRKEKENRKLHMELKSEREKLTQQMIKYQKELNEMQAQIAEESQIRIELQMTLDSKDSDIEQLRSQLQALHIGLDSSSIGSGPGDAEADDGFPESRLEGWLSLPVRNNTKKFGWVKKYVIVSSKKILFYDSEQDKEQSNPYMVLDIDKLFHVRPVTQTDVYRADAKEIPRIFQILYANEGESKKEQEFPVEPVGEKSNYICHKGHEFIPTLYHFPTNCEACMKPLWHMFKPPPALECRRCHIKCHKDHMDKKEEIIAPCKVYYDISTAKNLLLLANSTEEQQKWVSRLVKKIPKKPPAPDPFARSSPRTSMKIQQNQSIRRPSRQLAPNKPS
A general note: ADP-Glo turns the ADP formed in a reaction into a luminescent signal.

The next assay deals with ROCK 1 (Homo sapiens, UniProt Q13464). As to the kind of experiment: In vitro Rho kinase inhibitory activity assay (ADP-Glo), Rho kinase 1. It counts as biochemical. As to conditions: Ki by Cheng-Prusoff from IC50; 10 μM ATP, 25° C., expressed as range of activity. How it is done:
as §1

Chain of ROCK 1 (Q13464 whole entry): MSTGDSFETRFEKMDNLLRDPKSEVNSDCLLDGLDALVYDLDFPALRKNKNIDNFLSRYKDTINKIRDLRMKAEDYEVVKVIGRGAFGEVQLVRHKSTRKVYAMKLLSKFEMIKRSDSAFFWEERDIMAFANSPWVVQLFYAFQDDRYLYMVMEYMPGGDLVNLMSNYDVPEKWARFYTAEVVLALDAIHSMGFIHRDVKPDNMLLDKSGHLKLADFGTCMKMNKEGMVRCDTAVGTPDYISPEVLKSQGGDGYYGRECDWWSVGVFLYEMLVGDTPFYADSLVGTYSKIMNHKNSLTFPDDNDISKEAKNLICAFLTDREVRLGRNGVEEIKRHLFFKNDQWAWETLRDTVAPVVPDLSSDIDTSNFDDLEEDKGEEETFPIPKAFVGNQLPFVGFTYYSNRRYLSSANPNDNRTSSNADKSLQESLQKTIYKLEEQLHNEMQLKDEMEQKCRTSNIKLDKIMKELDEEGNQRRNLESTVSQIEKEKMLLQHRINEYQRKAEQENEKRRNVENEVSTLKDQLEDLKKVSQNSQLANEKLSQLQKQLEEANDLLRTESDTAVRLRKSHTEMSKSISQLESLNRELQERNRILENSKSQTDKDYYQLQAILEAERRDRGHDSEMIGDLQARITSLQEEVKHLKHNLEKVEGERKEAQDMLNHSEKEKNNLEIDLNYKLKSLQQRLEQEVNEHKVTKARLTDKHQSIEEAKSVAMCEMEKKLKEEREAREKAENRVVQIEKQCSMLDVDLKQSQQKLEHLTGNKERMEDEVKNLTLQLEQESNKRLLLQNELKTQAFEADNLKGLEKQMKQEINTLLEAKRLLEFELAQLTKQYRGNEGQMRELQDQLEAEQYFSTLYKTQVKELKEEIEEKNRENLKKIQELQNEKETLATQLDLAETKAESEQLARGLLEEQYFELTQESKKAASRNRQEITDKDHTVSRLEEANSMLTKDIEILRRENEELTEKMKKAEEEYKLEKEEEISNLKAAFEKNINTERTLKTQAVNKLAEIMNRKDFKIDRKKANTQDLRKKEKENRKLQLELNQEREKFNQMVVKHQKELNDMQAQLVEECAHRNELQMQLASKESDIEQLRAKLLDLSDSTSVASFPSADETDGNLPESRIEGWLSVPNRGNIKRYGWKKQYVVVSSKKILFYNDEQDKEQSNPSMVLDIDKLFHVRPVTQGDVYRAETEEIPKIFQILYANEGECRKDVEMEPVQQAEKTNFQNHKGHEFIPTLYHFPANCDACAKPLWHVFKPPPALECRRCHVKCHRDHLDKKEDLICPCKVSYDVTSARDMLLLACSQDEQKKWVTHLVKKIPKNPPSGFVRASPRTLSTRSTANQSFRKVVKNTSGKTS

Turning to `NCc1ccc(Oc2ccnc3[nH]cc(-c4cnn(Cc5ccccc5)c4)c23)c(F)c1` [Example 22, (4-((3-(1-benzyl-1H-pyrazol-4-yl)-1H-pyrrolo[2,3-b]pyridin-4-yl)oxy)-3-fluorophenyl)methanamine], the Ki at ROCK 2 and on ROCK 1 was less than 3 nM each time.
In the case of `NCc1ccc(Oc2ccnc3[nH]cc(-c4ccnc(NCc5ccccc5)n4)c23)c(F)c1` [Example 32, 4-(4-(4-(aminomethyl)-2-fluorophenoxy)-1H-pyrrolo[2,3-b]pyridin-3-yl)-N-benzylpyrimidin-2-amine], the figures for the inhibitory constant (Ki) at ROCK 2 and on ROCK 1 were less than 3 nM and 3 to 30 nM, respectively.
For `NCc1cc(F)c(Oc2ccnc3[nH]cc(-c4ccnc(NC(=O)C5CC5)c4)c23)c(F)c1` [Example 11, N-(4-(4-(4-(aminomethyl)-2,6-difluorophenoxy)-1H-pyrrolo[2,3-b]pyridin-3-yl)pyridin-2-yl)cyclopropanecarboxamide], in that order: less than 3 nM and less than 3 nM.
Taken in the same sequence, the figures for `C[C@H](Nc1cc(-c2c[nH]c3nccc(Oc4ccc5c(c4)CNCC5)c23)ncn1)c1ccccc1` [Example 54, (S)-N-(1-phenylethyl)-6-(4-((1,2,3,4-tetrahydroisoquinolin-7-yl)oxy)-1H-pyrrolo[2,3-b]pyridin-3-yl)pyrimidin-4-amine] were less than 3 nM and 3 to 30 nM.
Taken in the same sequence, the figures for `O=C(CN1CCCCC1)Nc1cc(-c2c[nH]c3nccc(Oc4ccc5c(c4)CNCC5)c23)ccn1` [Example 43, 2-(piperidin-1-yl)-N-(4-(4-((1,2,3,4-tetrahydroisoquinolin-7-yl)oxy)-1H-pyrrolo[2,3-b]pyridin-3-yl)pyridin-2-yl)acetamide] were less than 3 nM and less than 3 nM.
As for `NCc1ccc(Oc2ccnc3[nH]cc(-c4cnn(CC5CCOCC5)c4)c23)c(F)c1` [Example 24, (3-fluoro-4-((3-(1-((tetrahydro-2H-pyran-4-yl)methyl)-1H-pyrazol-4-yl)-1H-pyrrolo[2,3-b]pyridin-4-yl)oxy)phenyl)methanamine], the Ki at ROCK 2 is less than 3 nM; at ROCK 1 it was 3 to 30 nM.
For `c1ccc(CNc2cccc(-c3c[nH]c4nccc(Oc5ccc6c(c5)CNCC6)c34)n2)cc1` [Example 27, N-benzyl-6-(4-((1,2,3,4-tetrahydroisoquinolin-7-yl)oxy)-1H-pyrrolo[2,3-b]pyridin-3-yl)pyridin-2-amine], in that order: greater than 30 nM and greater than 30 nM.
For `c1ccc(CCNc2cc(-c3c[nH]c4nccc(Oc5ccc6c(c5)CNCC6)c34)ncn2)cc1` [Example 53, N-phenethyl-6-(4-((1,2,3,4-tetrahydroisoquinolin-7-yl)oxy)-1H-pyrrolo[2,3-b]pyridin-3-yl)pyrimidin-4-amine], in that order: less than 3 nM and less than 3 nM.
For `c1cc(-c2c[nH]c3nccc(Oc4ccc5c(c4)CNCC5)c23)ccn1` [Example 1, 7-((3-(pyridin-4-yl)-1H-pyrrolo[2,3-b]pyridin-4-yl)oxy)-1,2,3,4-tetrahydroisoquinoline], in that order: less than 3 nM and less than 3 nM.
As for `O=C(NC1CC1)C1CCN(c2cc(-c3c[nH]c4nccc(Oc5ccc6c(c5)CNCC6)c34)ccn2)C1` (stereo not shown) [Example 10, N-cyclopropyl-1-(4-(4-((1,2,3,4-tetrahydroisoquinolin-7-yl)oxy)-1H-pyrrolo[2,3-b]pyridin-3-yl)pyridin-2-yl)pyrrolidine-3-carboxamide], the Ki at ROCK 2 and on ROCK 1 was less than 3 nM in each case.
On to `NCc1ccc(Oc2ccnc3[nH]cc(-c4cc(NCc5ccccc5)ncn4)c23)c(F)c1` [Example 31, 6-(4-(4-(aminomethyl)-2-fluorophenoxy)-1H-pyrrolo[2,3-b]pyridin-3-yl)-N-benzylpyrimidin-4-amine], for which the Ki at ROCK 2 and on ROCK 1 was less than 3 nM throughout.
In the case of `O=C(Cn1cc(-c2c[nH]c3nccc(Oc4ccc5c(c4)CNCC5)c23)nn1)NCc1ccccc1` [Example 12, N-benzyl-2-(4-(4-((1,2,3,4-tetrahydroisoquinolin-7-yl)oxy)-1H-pyrrolo[2,3-b]pyridin-3-yl)-1H-1,2,3-triazol-1-yl)acetamide], the Ki is less than 3 nM on ROCK 2 and 3 to 30 nM at ROCK 1.
For the molecule `c1cc(-c2c[nH]c3nccc(Oc4ccc5c(c4)CNCC5)c23)cc(N2CCOCC2)n1` [Example 17, 4-(4-(4-((1,2,3,4-tetrahydroisoquinolin-7-yl)oxy)-1H-pyrrolo[2,3-b]pyridin-3-yl)pyridin-2-yl)morpholine], the Ki at ROCK 2 and on ROCK 1 was less than 3 nM throughout.
With `NCc1ccc(Oc2ccnc3[nH]cc(-c4ccnc(NCc5ccccc5)c4)c23)c(F)c1` [Example 33, 4-(4-(4-(aminomethyl)-2-fluorophenoxy)-1H-pyrrolo[2,3-b]pyridin-3-yl)-N-benzylpyridin-2-amine], the values for the Ki at ROCK 2 and on ROCK 1 were less than 3 nM and 3 to 30 nM, respectively.
Taken in the same sequence, the figures for `CN(C(=O)Nc1cc(-c2c[nH]c3nccc(Oc4ccc5c(c4)CNCC5)c23)ccn1)C1CCOCC1` [Example 48, 1-methyl-1-(tetrahydro-2H-pyran-4-yl)-3-(4-(4-((1,2,3,4-tetrahydroisoquinolin-7-yl)oxy)-1H-pyrrolo[2,3-b]pyridin-3-yl)pyridin-2-yl)urea] were less than 3 nM and 3 to 30 nM.
Taken in the same sequence, the figures for `c1cncc(CNc2cc(-c3c[nH]c4nccc(Oc5ccc6c(c5)CNCC6)c34)ccn2)c1` [Example 16, N-(pyridin-3-ylmethyl)-4-(4-((1,2,3,4-tetrahydroisoquinolin-7-yl)oxy)-1H-pyrrolo[2,3-b]pyridin-3-yl)pyridin-2-amine] were less than 3 nM and less than 3 nM.
In the case of `NCc1ccc(Oc2ccnc3[nH]cc(-c4cccc(OCc5ccccc5)c4)c23)cc1` [Example 3, (4-((3-(3-(benzyloxy)phenyl)-1H-pyrrolo[2,3-b]pyridin-4-yl)oxy)phenyl)methanamine], the inhibition constant (Ki) at ROCK 2 and at ROCK 1 was greater than 30 nM each time.
In the case of `O=C(Nc1cc(-c2c[nH]c3nccc(Oc4ccc5c(c4)CNCC5)c23)ccn1)C1CCOCC1` [Example 41, N-(4-(4-((1,2,3,4-tetrahydroisoquinolin-7-yl)oxy)-1H-pyrrolo[2,3-b]pyridin-3-yl)pyridin-2-yl)tetrahydro-2H-pyran-4-carboxamide], the Ki on ROCK 2 and at ROCK 1 was less than 3 nM each time.
In the case of `CC(C)OCC(=O)Nc1cc(-c2c[nH]c3nccc(Oc4ccc5c(c4)CNCC5)c23)ccn1` [Example 42, 2-isopropoxy-N-(4-(4-((1,2,3,4-tetrahydroisoquinolin-7-yl)oxy)-1H-pyrrolo[2,3-b]pyridin-3-yl)pyridin-2-yl)acetamide], the Ki at ROCK 2 and on ROCK 1 was less than 3 nM throughout.
For the molecule `Fc1cc2c(cc1Oc1ncnc3[nH]cc(-c4ccnc(NCc5ccccc5)c4)c13)CNCC2` [Example 6, N-benzyl-4-(4-((6-fluoro-1,2,3,4-tetrahydroisoquinolin-7-yl)oxy)-7H-pyrrolo[2,3-d]pyrimidin-5-yl)pyridin-2-amine], the Ki was less than 3 nM on ROCK 2 and 3 to 30 nM at ROCK 1.
Taken in the same sequence, the figures for `C[C@@H](Nc1cc(-c2c[nH]c3nccc(Oc4ccc5c(c4)CNCC5)c23)ncn1)c1ccccc1` [Example 52, (R)-N-(1-phenylethyl)-6-(4-((1,2,3,4-tetrahydroisoquinolin-7-yl)oxy)-1H-pyrrolo[2,3-b]pyridin-3-yl)pyrimidin-4-amine] were less than 3 nM and less than 3 nM.
Taken in the same sequence, the figures for `CN(C(=O)Nc1cc(-c2c[nH]c3nccc(Oc4ccc5c(c4)CNCC5)c23)ccn1)C1CCCCC1` [Example 47, 1-cyclohexyl-1-methyl-3-(4-(4-((1,2,3,4-tetrahydroisoquinolin-7-yl)oxy)-1H-pyrrolo[2,3-b]pyridin-3-yl)pyridin-2-yl)urea] were less than 3 nM and less than 3 nM.
Taken in the same sequence, the figures for `Cn1cc(-c2c[nH]c3nccc(Oc4ccc5c(c4)CNCC5)c23)cn1` [Example 21, 7-((3-(1-methyl-1H-pyrazol-4-yl)-1H-pyrrolo[2,3-b]pyridin-4-yl)oxy)-1,2,3,4-tetrahydroisoquinoline] were less than 3 nM and less than 3 nM.
Turning to `NCc1cc(F)c(Oc2ccnc3[nH]cc(-c4ccnc(NCc5cccnc5)c4)c23)c(F)c1` [Example 7, 4-(4-(4-(aminomethyl)-2,6-difluorophenoxy)-1H-pyrrolo[2,3-b]pyridin-3-yl)-N-(pyridin-3-ylmethyl)pyridin-2-amine], the Ki at ROCK 2 and on ROCK 1 was less than 3 nM throughout.
As for `c1cncc(CCNc2cc(-c3c[nH]c4nccc(Oc5ccc6c(c5)CNCC6)c34)ncn2)c1` [Example 55, N-(2-(pyridin-3-yl)ethyl)-6-(4-((1,2,3,4-tetrahydroisoquinolin-7-yl)oxy)-1H-pyrrolo[2,3-b]pyridin-3-yl)pyrimidin-4-amine], the Ki at ROCK 2 and on ROCK 1 was less than 3 nM in each case.
Turning to `c1ccc(CNc2cncc(-c3c[nH]c4nccc(Oc5ccc6c(c5)CNCC6)c34)c2)cc1` [Example 51, N-benzyl-5-(4-((1,2,3,4-tetrahydroisoquinolin-7-yl)oxy)-1H-pyrrolo[2,3-b]pyridin-3-yl)pyridin-3-amine], the Ki was less than 3 nM at ROCK 2 and 3 to 30 nM on ROCK 1.
